# Results published in patent US20090131356A1, “miR-15, miR-26, miR-31, miR-145, miR-147, miR-188, miR-215, miR-216, miR-331, mmu-miR-292-3P REGULATED GENES AND PATHWAYS AS TARGETS FOR THERAPEUTIC INTERVENTION” (ASURAGEN, INC., priority 2006, published 2009).
# Tests used:
# Type in all cases: cell-based, human
# H522 cells = assay: Alamar Blue proliferation assay, H522
# Text: (§1) The inventors assessed the therapeutic effect of hsa-miR-147 for lung cancer by using 12 individual lung cancer cell lines. To measure cellular proliferation of lung cancer cells, the following parental non-small cell lung cancer (NSCLC) cells were used: cells derived from lung adenocarcinoma (A549, H1299, H522, H838, Calu-3, HCC827, HCC2935), cells derived from lung squamous cell carcinoma (H520, H226), cells derived from lung adenosquamous cell carcinoma (H596), cells derived from lung bronchioalveolar carcinoma (H1650), and cells derived from lung large cell carcinoma (H460). In addition to these parental cell lines, highly metastatic NSCLC cells were used that stably express the firefly luciferase gene: A549-luc, H460-luc, HCC827-luc, H1650-luc, H441-luc. Unlike the parental cell lines, these metastatic cells readily migrate to distant sites of the test animal and form metastases upon subcutaneous, orthotopic, or intravenous injection. Synthetic hsa-miR-147 or negative control miRNA was delivered via lipid-based transfection into A549, H1299, H522, H838, Calu-3, HCC827, HCC2935, H520, H596, H1650, H460, A549-luc, H460-luc, HCC827-luc, H1650-luc, H441-luc cells and via electroporation into H226 cells. Lipid-based reverse transfection was carried out in triplicates according to a published protocol and the following parameters: 5000-12000 cells per 96 well, 0.1-0.2 μl lipofectamine-2000 (Invitrogen, Carlsbad, Calif.) in 20 μl OptiMEM (Invitrogen), […] final concentration of miRNA in 100 μl (Ovcharenko et al., 2005). Electroporation of H226 cells was carried out using the BioRad GenePulserXcell™ instrument with the following settings: 5×10^6 cells with 5 μg miRNA in 200 μl OptiMEM, square wave pulse at 250 V for 5 ms. Electroporated H226 cells were seeded at 7000 cells per 96-well in a total volume of 100 μl. All cells except for Calu-3 cells were harvested 72 hours post transfection or electroporation for assessment of cellular proliferation. Calu-3 cells were harvested 10 days post transfection. […]
# H441-luc cells = assay: Alamar Blue proliferation assay, H441-luc
# Text: as §1
# H460 cells = assay: Alamar Blue proliferation assay, H460
# Text: as §1
# Calu-3 cells = assay: Alamar Blue proliferation assay, Calu-3
# Text: as §1
# H1650-luc cells = assay: Alamar Blue proliferation assay, H1650-luc
# Text: as §1
# H596 cells = assay: Alamar Blue proliferation assay, H596
# Text: as §1
# A549-luc cells = assay: Alamar Blue proliferation assay, A549-luc
# Text: as §1
# H460 lung cancer cells = assay: Alamar Blue proliferation assay of pair-wise miRNA combinations; details: for % proliferation: H460 cells, normalized to 600 pM negative control (NC) miRNA
# Text: miRNAs function in multiple pathways controlling multiple cellular processes. Cancer cells frequently show aberrations in several different pathways which determine their oncogenic properties. Therefore, combinations of multiple miRNAs may provide a better therapeutic benefit rather than a single miRNA. The inventors assessed the efficacy of pair-wise miRNA combinations, administering hsa-miR-147 concurrently with hsa-miR-124a, hsa-miR-126, hsa-let7b, hsa-let-7c or hsa-let7g. H460 lung cancer cells were transiently reverse transfected in triplicates with each miRNA at a final concentration of 300 pM, totaling in 600 pM of oligonucleotide. As a negative control, 600 pM of negative control miRNA (pre-miR NC#2, Ambion) was used. To correlate the effect of various combinations with the effect of the sole miRNA, each miRNA at 300 pM was also combined with 300 pM negative control miRNA. Reverse transfection was carried using the following parameters: 7000 cells per 96 well, 0.15 μl lipofectamine2000 (Invitrogen) in 20 μl OptiMEM (Invitrogen), 100 μl total transfection volume. […] Cells were harvested 72 hours after transfection and subjected to Alamar Blue assays (Invitrogen). Alamar Blue values were normalized to the ones obtained from cells treated with 600 pM negative control miRNA. Data are expressed as % proliferation relative to negative control miRNA-treated cells.
# As shown in FIG. 4 and Table 9, transfection of 300 pM hsa-miR-147 reduces proliferation of H460 cells by 23%. […] Additive activity of pair-wise combinations (e.g., hsa-miR-147 plus hsa-miR-124a) is defined as an activity that is greater than the sole activity of each miRNA (e.g., activity of hsa-miR-147 plus hsa-miR-124a>hsa-miR-147 plus NC AND activity of hsa-miR-147 plus hsa-miR-124a>hsa-miR-124a plus NC). Synergistic activity of pair-wise combinations is defined as an activity that is greater than the sum of the sole activity of each miRNA (e.g., activity of hsa-miR-147 plus hsa-miR-124a>SUM [activity of hsa-miR-147 plus NC AND activity of hsa-miR-124a plus NC]). […]
# HCC827-luc cells = assay: Alamar Blue proliferation assay, HCC827-luc
# Text: as §1
# HCC827 cells = assay: Alamar Blue proliferation assay, HCC827
# Text: as §1
# [1] = 30 nM, normalized to negative control miRNA (100% proliferation)
# [2] = etoposide 10 μM, normalized to negative control miRNA (100%)
# [3] = etoposide 50 μM, normalized to negative control miRNA (100%)
compound,measurement,setting,value
"hsa-miR-147: Synthetic pre-miR-147 (Ambion AM17100; Dharmacon in vivo); mature sequence GUGUGUGGAAAUGCUUCUGC, MIMAT0000251, SEQ ID NO:114 (synthetic pre-miR (Ambion/Dharmacon), chemistry not given here; listed as Homo sapiens)",% proliferation,H522 cells; [1],89.21%
same,% proliferation,H441-luc cells; [1],55.53%
same,% proliferation,H460 cells; [1],72.11%
same,% proliferation,Calu-3 cells; [1],37.62%
same,% proliferation,H1650-luc cells; [1],59.27%
same,% proliferation,H596 cells; [1],91.60%
same,% proliferation,A549-luc cells; [1],75.69%
same,reduction of proliferation of H460 cells,"H460 lung cancer cells; 300 pM single miRNA plus 300 pM negative control miRNA, 72 hours, vs 600 pM negative control miRNA",23%
same,% proliferation,HCC827-luc cells; [1],61.15%
same,% proliferation,HCC827 cells; [1],76.18%
"COc1cc([C@@H]2c3cc4c(cc3[C@@H](O[C@@H]3O[C@@H]5CO[C@@H](C)O[C@H]5[C@H](O)[C@H]3O)[C@H]3COC(=O)[C@H]23)OCO4)cc(OC)c1O [Etoposide, etoposide]",% proliferation,H522 cells; [2],82.13%
same,% proliferation,H522 cells; [3],61.08%
same,% proliferation,H441-luc cells; [2],41.22%
same,% proliferation,H441-luc cells; [3],1.99%
same,% proliferation,H460 cells; [2],32.13%
same,% proliferation,H460 cells; [3],27.82%
same,% proliferation,Calu-3 cells; [2],20.81%
same,% proliferation,Calu-3 cells; [3],13.53%
same,% proliferation,H1650-luc cells; [2],33.78%
same,% proliferation,H1650-luc cells; [3],5.59%
same,% proliferation,H596 cells; [2],88.75%
same,% proliferation,H596 cells; [3],73.39%
same,% proliferation,A549-luc cells; [2],8.56%
same,% proliferation,A549-luc cells; [3],0.72%
same,% proliferation,H460 lung cancer cells; etoposide 10 μM,20.19%
same,% proliferation,H460 lung cancer cells; etoposide 50 μM,14.94%
same,% proliferation,HCC827-luc cells; [2],21.92%
same,% proliferation,HCC827-luc cells; [3],0.75%
same,% proliferation,HCC827 cells; [2],98.95%
same,% proliferation,HCC827 cells; [3],82.53%
